Measurements from US12324893B2, “Triptan microporation delivery system” (PassPort Technologies, Inc., priority 2019, dated 2025).

Assays:
[1] = Pain by poration (Examples 7-9); format: in vivo, guinea pigs
Experimental: (§1) This example describes various effects of filament density. To investigate the effect of filament density on PK profile and side effects (pain by poration and skin irritation), these studies were conducted. The filament density mainly affects the area to be utilized for the transfer of body fluid and ingredients in between skin and patch. The range of filament density was 100 filaments/cm^2 to 400 filaments/cm^2, and the poration energy was from 3 to 4 mJ/filament.
(§2) This example describes various effects to heating energy. The poration energy is related to the pore shape such as depth and width.
(§3) This example describes the selection of a desirable filament array size. Assuming the higher dose than 2 mg dose with the conditions 400 filaments/cm^2 filament density and 4 or 5 mJ/filament energy, filament array size may need to be made bigger. The range of dose was 0.5 to 4 mg, and the range of filament array size was 1.0 to 2.0 cm^2.

[2] = Administration route study in guinea pigs (Example 5); format: in vivo; conditions: for AUC / Cmax / Tmax: guinea pig, blood
Experimental: This example describes an administration route study in guinea pigs using the same method mentioned in Example 4. In this study, base refers to Zomitriptan.
In this study, five groups of guinea pigs were tested under the following conditions: (1) Group 1 (10 mg base/4 ml, oral route); (2) Group 2 (5 mg base/2 ml, oral route); (3) Group 3 (2 mg base/4 mL, oral route); (4) Group 4 (2.0 mg base/cm^2, transdermal microporation); and (5) Group 5 (2 mg/200 μL, SubQ). The given bioavailability of Tables 6 is relative bioavailability against subcutaneous injection.

[3] = Administration route study in hairless rats (Example 4); format: in vivo; conditions: Group 2: 2 mg zolmitriptan
[4] = as above; format: in vivo; conditions: for AUC / Cmax / Tmax: rat, blood
Experimental: (§4) Hairless rats were used as experimental animals. After oral administration of a drug solution (2.0 ml) containing 2.0 mg of zolmitriptan, blood was collected at a desired time, each medicinal component was extracted according to a conventional method, then blood concentration was quantified by high performance liquid chromatography (LC-MS/MS).
as §4, with “intravenous” for “oral”, “(10 μl)” for “(2.0 ml)”, “2” for “2.0”
as §4, with “intravenous” for “oral”, “(200 μl)” for “(2.0 ml)”, “2” for “2.0”
Hairless rats were used as experimental animals. A drug patch was affixed on the flank side of skin of experimental animals that had undergone microporation treatment under the desired conditions. In this study, microporation condition of transdermal microporation was 400 pores/cm^2, 5.2 mJ/filament. The administration side was 1 cm^2. During the period where the patch was affixed, and after it had adhered, blood was collected at a desired time, each medicinal component was extracted according to a conventional method, then blood concentration was quantified by high performance liquid chromatography (LC-MS/MS). A Patch formulation of this study was 2 mg Zolmitriptan, sucrose 0.5 mg, AA 4 mg, 1 cm^2 non-woven matrix (EH-1212, WHC=4 mg/cm^2),
The given bioavailability of Table 5 is absolute bioavailability against IV injection.

skin = test: Skin irritation at different poration conditions (Examples 7-9); format: in vivo, guinea pigs
Experimental: A skin irritation examination was performed following the patch removal. The skin irritation examination scale was an assessment of the skin directly under the matrix.
as §1, §2, §3

[5] = Table 17 #1: dose 0.50 mg, 4 mJ/filament, 1.0 cm^2, 400 filaments/cm^2
[6] = Table 17 # 2: dose 2.00 mg, 4 mJ/filament, 1.0 cm^2, 400 filaments/cm^2
[7] = Table 17 # 3: dose 3.00 mg, 4 mJ/filament, 1.0 cm^2, 400 filaments/cm^2
[8] = Table 17 # 4: dose 4.00 mg, 4 mJ/filament, 1.5 cm^2, 400 filaments/cm^2
[9] = Table 17 # 5: dose 4.00 mg, 4 mJ/filament, 2.0 cm^2, 400 filaments/cm^2
[10] = Table 17 # 6: dose 4.00 mg, 5 mJ/filament, 1.5 cm^2, 400 filaments/cm^2
[11] = Group 1: 10 mg base/4 ml, oral route
[12] = Group 2: 5 mg base/2 ml, oral route
[13] = Group 3: 2 mg base/4 mL, oral route
[14] = topical or ocular, Group 4: 2.0 mg base/cm^2, transdermal microporation
[15] = rat, blood, inhaled or intranasal
[16] = Group 1: 2 mg zolmitriptan, oral administration
[17] = Group 3: 2 mg zolmitriptan, intravenous injection
[18] = topical or ocular, Group 4: 2 mg zolmitriptan, transdermal microporation (400 pores/cm^2, 5.2 mJ/filament, 1 cm^2)
[19] = Table 13 # 1: 100 filaments/cm^2, 3 mJ/filament, 1.0 cm^2, 2.00 mg patch
[20] = Table 13 # 2: 200 filaments/cm^2, 3 mJ/filament, 1.0 cm^2, 2.00 mg patch
[21] = Table 13 # 3: 400 filaments/cm^2, 3 mJ/filament, 1.0 cm^2, 2.00 mg patch
[22] = Table 13 # 4: 100 filaments/cm^2, 4 mJ/filament, 1.0 cm^2, 2.00 mg patch
[23] = Table 13 # 5: 200 filaments/cm^2, 4 mJ/filament, 1.0 cm^2, 2.00 mg patch
[24] = Table 13 # 6: 400 filaments/cm^2, 4 mJ/filament, 1.0 cm^2, 2.00 mg patch
[25] = Table 15 # 1: 400 filaments/cm^2, 2 mJ/filament, 1.0 cm^2, 2.00 mg patch
[26] = Table 15 # 2: 400 filaments/cm^2, 3 mJ/filament, 1.0 cm^2, 2.00 mg patch
[27] = Table 15 # 3: 400 filaments/cm^2, 4 mJ/filament, 1.0 cm^2, 2.00 mg patch
[28] = Table 15 # 4: 400 filaments/cm^2, 5 mJ/filament, 1.0 cm^2, 2.00 mg patch

Pain by poration ± SD ([1]; Table 13 # 1: 100 filaments/cm^2, 3 mJ/filament, area 1.0 cm^2): 0.0 ± 0.0
Pain by poration ± SD ([1]; Table 13 # 2: 200 filaments/cm^2, 3 mJ/filament, area 1.0 cm^2): 0.6 ± 0.5
Pain by poration ± SD ([1]; Table 13 # 3: 400 filaments/cm^2, 3 mJ/filament, area 1.0 cm^2): 0.5 ± 0.6
Pain by poration ± SD ([1]; Table 13 # 4: 100 filaments/cm^2, 4 mJ/filament, area 1.0 cm^2): 0.8 ± 1.0
Pain by poration ± SD ([1]; Table 13 # 5: 200 filaments/cm^2, 4 mJ/filament, area 1.0 cm^2): 1.8 ± 0.4
Pain by poration ± SD ([1]; Table 13 # 6: 400 filaments/cm^2, 4 mJ/filament, area 1.0 cm^2): 1.8 ± 0.5
Pain by poration ± SD ([1]; Table 15 # 1: 400 filaments/cm^2, 2 mJ/filament, area 1.0 cm^2): 0.3 ± 0.5
Pain by poration ± SD ([1]; Table 15 # 2: 400 filaments/cm^2, 3 mJ/filament, area 1.0 cm^2): 0.5 ± 0.6
Pain by poration ± SD ([1]; Table 15 # 3: 400 filaments/cm^2, 4 mJ/filament, area 1.0 cm^2): 1.8 ± 0.5
Pain by poration ± SD ([1]; Table 15 # 4: 400 filaments/cm^2, 5 mJ/filament, area 1.0 cm^2): 0.8 ± 1.0
Pain by poration ± SD [1, 5]: 0.5 ± 0.6
Pain by poration ± SD [1, 6]: 1.8 ± 0.5
Pain by poration ± SD [1, 7]: 0.3 ± 0.5
Pain by poration ± SD [1, 8]: 2.3 ± 0.5
Pain by poration ± SD [1, 9]: 2.8 ± 0.5
Pain by poration ± SD [1, 10]: 2.8 ± 0.5
BA ([2]; Group 1: 10 mg base/4 ml, oral route, relative bioavailability against subcutaneous injection): 16.2%
BA ([2]; Group 2: 5 mg base/2 ml, oral route, relative bioavailability against subcutaneous injection): 8.3%
BA ([2]; Group 3: 2 mg base/4 mL, oral route, relative bioavailability against subcutaneous injection): 4.5%
BA ([2]; Group 4: 2.0 mg base/cm^2, transdermal microporation, relative bioavailability against subcutaneous injection): 84.2%
BA ([2]; Group 5: 2 mg/200 μL, SubQ, relative bioavailability against subcutaneous injection (reference)): 100.0%
AUC [2, 11]: 1390 ng·h/mL
Cmax [2, 11]: 910 ng/mL
Tmax [2, 11]: 26.4 min
AUC [2, 12]: 353 ng·h/mL
Cmax [2, 12]: 259 ng/mL
Tmax [2, 12]: 33.6 min
AUC [2, 13]: 77 ng·h/mL
Cmax [2, 13]: 25 ng/mL
Tmax [2, 13]: 19.8 min
AUC ([2]; sc, Group 5: 2 mg/200 μL, SubQ): 1710 ng·h/mL
Cmax ([2]; sc, Group 5: 2 mg/200 μL, SubQ): 3880 ng/mL
Tmax ([2]; sc, Group 5: 2 mg/200 μL, SubQ): 5.4 min
Cmax [2, 14]: 864 ng/mL
Tmax [2, 14]: 30 min
AUC ([2]; topical or ocular, Group 4: 2.0 mg base/cm^2, transdermal microporation (400 pores/cm^2, 5.2 mJ/filament)): 1440 ng·h/mL
BA ([3]; intranasal administration, absolute bioavailability against IV injection): 12.0%
AUC [3, 15]: 239 ng·h/mL
Cmax [3, 15]: 127 ng/mL
Tmax [3, 15]: 135 min
BA ([4]; Group 1: 2 mg zolmitriptan, oral administration, absolute bioavailability against IV injection): 11.4%
BA ([4]; Group 3: 2 mg zolmitriptan, intravenous injection, absolute bioavailability against IV injection (reference)): 100.0%
BA ([4]; Group 4: 2 mg zolmitriptan, transdermal microporation (400 pores/cm^2, 5.2 mJ/filament, 1 cm^2), absolute bioavailability against IV injection): 71.4%
AUC [4, 16]: 227 ng·h/mL
Cmax [4, 16]: 74 ng/mL
Tmax [4, 16]: 270 min
AUC [4, 17]: 2000 ng·h/mL
Cmax [4, 17]: 5020 ng/mL
Tmax [4, 17]: 3 min
Cmax [4, 18]: 577 ng/mL
Tmax [4, 18]: 37.8 min
AUC ([4]; topical or ocular, Group 4: 2 mg zolmitriptan, transdermal microporation (400 pores/cm^2, 5.2 mJ/filament, 1 cm^2; patch with sucrose 0.5 mg, AA 4 mg)): 1430 ng·h/mL
SMILES: CN(C)CCc1c[nH]c2ccc(C[C@H]3COC(=O)N3)cc12 [Zolmitriptan]
Skin irritation relief ± SD (Days to recover to score 1) (skin; [19]): 0.0 ± 0.0 days
Skin irritation ± SD (Just after patch removal) (skin; [19]): 0.8 ± 0.3
Skin irritation relief ± SD (Days to recover to score 1) (skin; [20]): 1.8 ± 0.8 days
Skin irritation ± SD (Just after patch removal) (skin; [20]): 2.2 ± 0.4
Skin irritation relief ± SD (Days to recover to score 1) (skin; [21]): 2.8 ± 1.3 days
Skin irritation ± SD (Just after patch removal) (skin; [21]): 1.9 ± 0.3
Skin irritation relief ± SD (Days to recover to score 1) (skin; [22]): 1.8 ± 0.5 days
Skin irritation ± SD (Just after patch removal) (skin; [22]): 1.6 ± 0.3
Skin irritation relief ± SD (Days to recover to score 1) (skin; [23]): 3.0 ± 1.9 days
Skin irritation ± SD (Just after patch removal) (skin; [23]): 2.1 ± 0.7
Skin irritation relief ± SD (Days to recover to score 1) (skin; [24]): 3.2 ± 0.8 days
Skin irritation ± SD (Just after patch removal) (skin; [24]): 2.1 ± 0.3
Skin irritation relief ± SD (Days to recover to score 1) (skin; [25]): 2.3 ± 1.2 days
Skin irritation ± SD (Just after patch removal) (skin; [25]): 1.8 ± 0.3
Skin irritation relief ± SD (Days to recover to score 1) (skin; [26]): 2.8 ± 1.3 days
Skin irritation ± SD (Just after patch removal) (skin; [26]): 1.9 ± 0.3
Skin irritation relief ± SD (Days to recover to score 1) (skin; [27]): 3.2 ± 0.8 days
Skin irritation ± SD (Just after patch removal) (skin; [27]): 2.1 ± 0.3
Skin irritation relief ± SD (Days to recover to score 1) (skin; [28]): 2.6 ± 1.7 days
Skin irritation ± SD (Just after patch removal) (skin; [28]): 2.3 ± 0.3
Skin irritation relief ± SD (Days to recover to score 1) (skin; [5]): 2.5 ± 1.0 days
Skin irritation ± SD (Just after patch removal) (skin; [5]): 1.6 ± 0.5
Skin irritation relief ± SD (Days to recover to score 1) (skin; [6]): 3.2 ± 0.8 days
Skin irritation ± SD (Just after patch removal) (skin; [6]): 2.1 ± 0.3
Skin irritation relief ± SD (Days to recover to score 1) (skin; [7]): 3.0 ± 0.5 days
Skin irritation ± SD (Just after patch removal) (skin; [7]): 2.0 ± 0.0
Skin irritation ± SD (Just after patch removal) (skin; [8]): 2.1 ± 0.3
Skin irritation relief ± SD (Days to recover to score 1) (skin; [9]): 4.3 ± 0.9 days
Skin irritation ± SD (Just after patch removal) (skin; [9]): 2.0 ± 0.0
Skin irritation relief ± SD (Days to recover to score 1) (skin; [10]): 5.5 ± 1.9 days
Skin irritation ± SD (Just after patch removal) (skin; [10]): 1.9 ± 0.3
